Data reported in patent US8003372B2, “Device for performing cell assays” (The University Court of the University of Glasgow, priority 2002, dated 2011).

System: adult ventricular myocytes
Description: Single cardiac myocytes were isolated from rabbit ventricles by collagenase digestion (D. A. Eisner, C. G. Nichols, S. C. O'Neill, G. L. Smith and M. Valdeomillos, The effects of metabolic inhibition on intracellular calcium an pH in isolated rat ventricular cells, Journal of Physiology, 411, (1989), 393-418) and kept in Base Krebs Solution, containing 120 mM NaCl, 20 mM sodium N-hydroxyethylpiperazine-N′-2-ethane sulphonic acid, 5.4 mM KCl, 0.52 mM NaH2PO4, 3.5 mM MgCl2.6H2O, 20 mM Taurine, 10 mM Creatine, 100 mM Glucose, 0.1% BSA, 0.1 mM CaCl2. The pH was adjusted to 7.4 with 100 mM NaOH.
Sarcomere length and intracellular Ca^2+ concentration ([Ca^2+]i) were monitored simultaneous using the fluorescence-contractility System of Ionoptix (Milton, Mass., USA). Ventricular myocytes were loaded with Fluo-3 by incubation for 30 min in 20 μM Fluo-3 AM solution (Molecular Probes). […] To measure the possible change in extracellular pH during field stimulation, 10 μM BCECF (Molecular Probes) was added to the bath and the emission was recorded using the same filter set as for Fluo-3. […]
Symmetric biphasic rectangular pulses were generated across the electrodes. […] A voltage-current converter was used to read the current response of one electrode together with the corresponding voltage into a 20 MHz 4 channel acquisition card (PCI-9812, Adlink, Taiwan). A TTL signal synchronous to the biphasic pulses was fed into the reader of the PMT-current to mark each pulse arrival on the fluorescence trace for off-line event averaging. After filling the microchambers with electrolyte (buffer), the current evoked on the individual stimulation electrodes was monitored to assure the ionic connection between the microelectrodes in each chamber, prior to the addition of cardiac muscle cells. The measured current was integrated to give a measure of the total amount of net-charge added to the microchamber, and the polarization of the electrode surface. […]

Question: For N#CC(C#N)=NNc1ccc(OC(F)(F)F)cc1 [FCCP], which “Ca2+ transients evoked at 0.5 Hz” value (1 μM FCCP, 10 minutes after the 50 min time point of continual stimulation, 100 pL chamber) is on record?
Answer: ceased almost completely

Question: And the “response of the cell to electrical stimuli (Ca2+ transient)” value (1 μM FCCP, after 50 min continual stimulation at alternating frequencies of 0.5 and 1.0 Hz, 100 pL chamber)?
Answer: no longer responded to every single stimulus with a Ca^2+ transient of normal amplitude

Question: What about the “excitability of the cell after washing out” value (after washing out FCCP, changing the buffer and a 5 min rest interval) of the same compound?
Answer: regained its excitability
